US20220378776A1, “DRUG COMBINATION OF QUINOLINE DERIVATIVE AND PD-1 MONOCLONAL ANTIBODY” (CHIA TAI TIANQING PHARMACEUTICAL GROUP CO., LTD, priority 2019, published 2022)

Legend:
[1] = system: advanced NSCLC; details: phase 3, Chinese patients; cited from earlier work
[2] = phase 2 clinical trial; cited from earlier work
[3] = Expected steady state exposure of sintilimab 200 mg Q3W; type: in vivo
Protocol: In some embodiments of the present application, sintilimab is administered at a single dose of 200 mg by intravenous infusion, once every 3 weeks, and every 3 weeks is a treatment cycle.
The selection of the administration mode of sintilimab in this study was mainly based on the data of safety and exposure (concentration)-response (PD-1 receptor occupancy) relationship in the currently completed preliminary studies, combined with the preclinical in vitro/in vivo efficacy and related comparison data of similar drugs.

Molecule | overall survival [1] | progression-free survival [1] | tolerability [1] | overall survival [2] | progression-free survival [2] | time of continuous administration to reach steady state ([3]; 200 mg Q3W (4 times)) [days] | mean steady state trough concentration ([3]; 200 mg Q3W continuously for 84 days (4 times))
COc1cc2c(Oc3ccc4[nH]c(C)cc4c3F)ccnc2cc1OCC1(N)CC1 [anlotinib, 1-[[[4-(4-fluoro-2-methyl-1H-indol-5-yl)oxy-6-methoxyquinolin-7-yl]oxy]methyl]cyclopropylamine] | prolonged | prolonged | well tolerated | potential benefit in overall survival | improve progression-free survival |  | 
sintilimab: anti-PD-1 human IgG4 monoclonal antibody; heavy chain SEQ ID NO: 10, light chain SEQ ID NO: 9; antibody D of CN108473977A |  |  |  |  |  | 84 | about 26 μg/mL
